Assay results published in ChEMBL document CHEMBL1201862, “PubChem BioAssay data set” (2004).
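Method: 48-hour compound exposure of cells in 96-well plates, five concentrations, linear interpolation of endpoints. Abbreviation: GI50, concentration required for 50% inhibition of growth.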 Calls of active or inactive are those of the source. No stated cut-off is given here; in the data, active = GI50 up to about 1.1 µM and inactive = higher.

Assays:
Assay in all cases: NCI anticancer screen, dose series, 48 h
LOX IMVI = system: LOX IMVI
OVCAR-8 = system: OVCAR-8
M14 = system: M14
HCT-116 = system: HCT-116
NCI-H23 = system: NCI-H23
CCRF-CEM = system: CCRF-CEM
A498 = system: A498
MDA-MB-231 = system: MDA-MB-231
MOLT-4 = system: MOLT-4
MDA-MB-435 = system: MDA-MB-435
TK-10 = system: TK-10
HT-29 = system: HT-29
BT-549 = system: BT-549
MDA-N = system: MDA-N
SW-620 = system: SW-620
SK-MEL-28 = system: SK-MEL-28
Hs-578T = system: Hs-578T
HL-60 = system: HL-60

N=C(N)SCC(=O)O
GI50 (LOX IMVI): > 100 µM (inactive)
GI50 (OVCAR-8): > 100 µM (inactive)
GI50 (M14): > 100 µM (inactive)
GI50 (HCT-116): > 100 µM (inactive)
GI50 (NCI-H23): > 100 µM (inactive)
GI50 (CCRF-CEM): > 100 µM (inactive)
GI50 (A498): > 100 µM (inactive)
GI50 (MDA-MB-231): > 100 µM (inactive)
GI50 (MOLT-4): > 100 µM (inactive)
GI50 (MDA-MB-435): > 100 µM (inactive)
GI50 (TK-10): > 100 µM (inactive)
GI50 (HT-29): > 100 µM (inactive)
GI50 (BT-549): > 100 µM (inactive)
GI50 (MDA-N): > 100 µM (inactive)
GI50 (SW-620): > 100 µM (inactive)
GI50 (SK-MEL-28): > 100 µM (inactive)
GI50 (Hs-578T): > 100 µM (inactive)

CN(C)c1ccc(/C=C/c2ccc3ccccc3[n+]2C)cc1
GI50 (HL-60): 1.34 µM (inactive)
GI50 (OVCAR-8): 1.39 µM (inactive)
GI50 (M14): 4.12 µM (inactive)
GI50 (HCT-116): 1.81 µM (inactive)
GI50 (NCI-H23): 1.48 µM (inactive)
GI50 (CCRF-CEM): 1.66 µM (inactive)
GI50 (A498): 20.1 µM (inactive)
GI50 (MDA-MB-231): 3.28 µM (inactive)
GI50 (MOLT-4): 1.47 µM (inactive)
GI50 (MDA-MB-435): 4.21 µM (inactive)
GI50 (TK-10): 5.16 µM (inactive)
GI50 (HT-29): 3.37 µM (inactive)
GI50 (BT-549): 1.2 µM (inactive)
GI50 (MDA-N): 2.03 µM (inactive)
GI50 (SW-620): 2.12 µM (inactive)
GI50 (SK-MEL-28): 3.87 µM (inactive)
GI50 (Hs-578T): 20.4 µM (inactive)

COc1cc2c(cc1OC)C(=O)/C(=C/c1cc(C)c(O)c(C)c1)C2
GI50 (LOX IMVI): < 0.0259 µM (active)
GI50 (HL-60): < 0.01 µM (active)
GI50 (M14): < 0.01 µM (active)
GI50 (HCT-116): < 0.0112 µM (active)
GI50 (NCI-H23): < 0.01 µM (active)
GI50 (CCRF-CEM): < 0.01 µM (active)
GI50 (A498): > 21.2 µM (inactive)
GI50 (MDA-MB-231): 0.0171 µM (active)
GI50 (MOLT-4): < 0.01 µM (active)
GI50 (MDA-MB-435): < 0.01 µM (active)
GI50 (TK-10): > 76.7 µM (inactive)
GI50 (HT-29): 5.19 µM (inactive)
GI50 (BT-549): > 100 µM (inactive)
GI50 (MDA-N): < 0.01 µM (active)
GI50 (SW-620): < 0.0106 µM (active)
GI50 (SK-MEL-28): > 75.7 µM (inactive)
GI50 (Hs-578T): < 0.01 µM (active)

COC(=O)C(COC(C)=O)NC(=O)/C=C/c1ccc(O)c(OC(C)=O)c1 (configuration not stated)
GI50 (LOX IMVI): 44.6 µM (inactive)
GI50 (OVCAR-8): 58.1 µM (inactive)
GI50 (M14): > 100 µM (inactive)
GI50 (HCT-116): 39.1 µM (inactive)
GI50 (NCI-H23): > 100 µM (inactive)
GI50 (CCRF-CEM): 17.4 µM (inactive)
GI50 (A498): > 100 µM (inactive)
GI50 (MDA-MB-231): 30.1 µM (inactive)
GI50 (MOLT-4): 13.6 µM (inactive)
GI50 (MDA-MB-435): > 100 µM (inactive)
GI50 (TK-10): 77.4 µM (inactive)
GI50 (HT-29): 78.2 µM (inactive)
GI50 (BT-549): > 100 µM (inactive)
GI50 (MDA-N): > 100 µM (inactive)
GI50 (SW-620): 31 µM (inactive)
GI50 (SK-MEL-28): 66.2 µM (inactive)
GI50 (Hs-578T): > 100 µM (inactive)

C/C(=N\NS(=O)(=O)c1ccc(C)cc1)P(=O)(O)O
GI50 (LOX IMVI): > 100 µM (inactive)
GI50 (OVCAR-8): > 100 µM (inactive)
GI50 (M14): > 100 µM (inactive)
GI50 (HCT-116): > 100 µM (inactive)
GI50 (NCI-H23): > 100 µM (inactive)
GI50 (A498): > 100 µM (inactive)
GI50 (MDA-MB-231): > 100 µM (inactive)
GI50 (MDA-MB-435): > 100 µM (inactive)
GI50 (TK-10): > 100 µM (inactive)
GI50 (HT-29): > 100 µM (inactive)
GI50 (BT-549): > 100 µM (inactive)
GI50 (MDA-N): > 100 µM (inactive)
GI50 (SW-620): > 100 µM (inactive)
GI50 (SK-MEL-28): > 100 µM (inactive)
GI50 (Hs-578T): > 100 µM (inactive)

N#Cc1c(-c2ccccc2)cc(-c2ccccc2)n(C2OCC(O)C(O)C2O)c1=S (configuration not stated)
GI50 (LOX IMVI): 18.1 µM (inactive)
GI50 (OVCAR-8): 20.8 µM (inactive)
GI50 (M14): 27.2 µM (inactive)
GI50 (HCT-116): 14.7 µM (inactive)
GI50 (NCI-H23): 21.3 µM (inactive)
GI50 (CCRF-CEM): 16.4 µM (inactive)
GI50 (A498): 19.7 µM (inactive)
GI50 (MDA-MB-231): 0.946 µM (active)
GI50 (MOLT-4): 16.7 µM (inactive)
GI50 (MDA-MB-435): 19 µM (inactive)
GI50 (TK-10): 27.9 µM (inactive)
GI50 (HT-29): 23 µM (inactive)
GI50 (BT-549): 16.6 µM (inactive)
GI50 (MDA-N): 17.3 µM (inactive)
GI50 (SW-620): 16.5 µM (inactive)
GI50 (SK-MEL-28): 26.6 µM (inactive)
GI50 (Hs-578T): 29.6 µM (inactive)

COc1ccccc1CNCCCCCNCCCCCCCCCCNCCCCCNCc1ccccc1OC
GI50 (LOX IMVI): 16.7 µM (inactive)
GI50 (HL-60): 21.8 µM (inactive)
GI50 (OVCAR-8): 25.6 µM (inactive)
GI50 (M14): 73.6 µM (inactive)
GI50 (HCT-116): 11.8 µM (inactive)
GI50 (NCI-H23): 42.2 µM (inactive)
GI50 (CCRF-CEM): 13 µM (inactive)
GI50 (MDA-MB-231): 16.2 µM (inactive)
GI50 (MOLT-4): 13.6 µM (inactive)
GI50 (MDA-MB-435): 57.4 µM (inactive)
GI50 (TK-10): 54.6 µM (inactive)
GI50 (HT-29): 96.6 µM (inactive)
GI50 (BT-549): 23.5 µM (inactive)
GI50 (MDA-N): 18.2 µM (inactive)
GI50 (SW-620): 34.4 µM (inactive)
GI50 (SK-MEL-28): 79.1 µM (inactive)
GI50 (Hs-578T): 1.05 µM (active)

COc1ccc(NC(C)=O)c(C(=O)CCNC(C)=O)c1
GI50 (LOX IMVI): > 100 µM (inactive)
GI50 (HL-60): > 100 µM (inactive)
GI50 (OVCAR-8): > 100 µM (inactive)
GI50 (M14): > 100 µM (inactive)
GI50 (HCT-116): > 100 µM (inactive)
GI50 (NCI-H23): > 100 µM (inactive)
GI50 (CCRF-CEM): > 100 µM (inactive)
GI50 (A498): > 100 µM (inactive)
GI50 (MDA-MB-231): > 100 µM (inactive)
GI50 (MOLT-4): > 100 µM (inactive)
GI50 (MDA-MB-435): > 100 µM (inactive)
GI50 (TK-10): > 100 µM (inactive)
GI50 (HT-29): > 100 µM (inactive)
GI50 (BT-549): > 100 µM (inactive)
GI50 (MDA-N): > 100 µM (inactive)
GI50 (SW-620): > 100 µM (inactive)
GI50 (Hs-578T): > 100 µM (inactive)

Cc1c(NC(=S)NN)c(=O)n(-c2ccccc2)n1C
GI50 (LOX IMVI): > 100 µM (inactive)
GI50 (HL-60): > 100 µM (inactive)
GI50 (OVCAR-8): > 100 µM (inactive)
GI50 (M14): > 100 µM (inactive)
GI50 (HCT-116): > 100 µM (inactive)
GI50 (CCRF-CEM): > 100 µM (inactive)
GI50 (A498): > 100 µM (inactive)
GI50 (MDA-MB-231): 0.0796 µM (active)
GI50 (MOLT-4): > 100 µM (inactive)
GI50 (MDA-MB-435): > 100 µM (inactive)
GI50 (TK-10): > 100 µM (inactive)
GI50 (HT-29): > 100 µM (inactive)
GI50 (BT-549): > 100 µM (inactive)
GI50 (MDA-N): > 100 µM (inactive)
GI50 (SW-620): > 100 µM (inactive)
GI50 (SK-MEL-28): > 100 µM (inactive)
GI50 (Hs-578T): 93.8 µM (inactive)

COc1ccc2oc(=O)c(-c3cc4c(c(C)n3)c(=O)oc3ccc(OC)cc34)cc2c1
GI50 (LOX IMVI): > 100 µM (inactive)
GI50 (HL-60): > 100 µM (inactive)
GI50 (OVCAR-8): > 100 µM (inactive)
GI50 (M14): > 100 µM (inactive)
GI50 (HCT-116): > 100 µM (inactive)
GI50 (NCI-H23): > 100 µM (inactive)
GI50 (CCRF-CEM): > 100 µM (inactive)
GI50 (MDA-MB-231): > 100 µM (inactive)
GI50 (MOLT-4): > 100 µM (inactive)
GI50 (MDA-MB-435): > 100 µM (inactive)
GI50 (TK-10): > 100 µM (inactive)
GI50 (HT-29): 80.5 µM (inactive)
GI50 (BT-549): > 100 µM (inactive)
GI50 (MDA-N): > 100 µM (inactive)
GI50 (SW-620): > 100 µM (inactive)
GI50 (SK-MEL-28): > 100 µM (inactive)
GI50 (Hs-578T): 27.4 µM (inactive)

C#C[C@]1(O)CC[C@H]2[C@@H]3CCC4=C/C(=N/NC(=O)c5cccc6cc7ccccc7nc56)CC[C@@H]4[C@H]3CC[C@@]21CC
GI50 (LOX IMVI): 48.9 µM (inactive)
GI50 (HL-60): 48 µM (inactive)
GI50 (OVCAR-8): 45 µM (inactive)
GI50 (M14): 84.7 µM (inactive)
GI50 (HCT-116): 60.5 µM (inactive)
GI50 (NCI-H23): > 100 µM (inactive)
GI50 (CCRF-CEM): 40.5 µM (inactive)
GI50 (A498): > 100 µM (inactive)
GI50 (MDA-MB-231): > 100 µM (inactive)
GI50 (MOLT-4): 0.0942 µM (active)
GI50 (MDA-MB-435): 91.4 µM (inactive)
GI50 (HT-29): 41.4 µM (inactive)
GI50 (BT-549): > 100 µM (inactive)
GI50 (MDA-N): 93.3 µM (inactive)
GI50 (SW-620): > 100 µM (inactive)
GI50 (SK-MEL-28): > 100 µM (inactive)
GI50 (Hs-578T): 94 µM (inactive)

COc1c(O)cc(O)c2c(=O)cc(-c3ccccc3)oc12 [WOGONIN]
GI50 (LOX IMVI): 22.4 µM (inactive)
GI50 (HL-60): 21.5 µM (inactive)
GI50 (OVCAR-8): 52.4 µM (inactive)
GI50 (M14): 69 µM (inactive)
GI50 (HCT-116): 24.3 µM (inactive)
GI50 (NCI-H23): 42.6 µM (inactive)
GI50 (CCRF-CEM): 27 µM (inactive)
GI50 (MDA-MB-231): > 100 µM (inactive)
GI50 (MOLT-4): 36.1 µM (inactive)
GI50 (MDA-MB-435): 65.5 µM (inactive)
GI50 (TK-10): 60.8 µM (inactive)
GI50 (HT-29): 51.9 µM (inactive)
GI50 (BT-549): 55.2 µM (inactive)
GI50 (MDA-N): 84.7 µM (inactive)
GI50 (SW-620): 54.1 µM (inactive)
GI50 (SK-MEL-28): > 100 µM (inactive)
GI50 (Hs-578T): 18.7 µM (inactive)
